Results from patent US4503076A, “Vasodilator compound and pharmaceutical compositions therefrom” (Ausonia Farmaceutic s.r.l., priority 1981, dated 1985).
Read-outs that look alike come from different tables or passages of the source.

Legend:
[1] = Solubility; assay type: physicochemical
[2] = test system: lower limb of rats (vascular zone); experiment: Vasodilator activity, perfusion of the lower limb of rats (Foster et al.); conditions: for inhibition at 50 µg/mL: read-out: Decrease in pressure, %
Description: (Foster et al., J.Pharmacol.Exp.Ther. 89,256,1947)
This study has been carried out in rats by perfusion of the lower limb while determining the variation of the resistance offered by the vascular zone after the perfusion by means of a suitable pressure transducer.
The vaso-constricting agent used is a solution containing a high content of potassium, together with papaverine, the latter being used for comparison purposes.

[3] = test system: isolated small intestine (ileum) of guinea pigs; experiment: Spasmolytic activity in vitro on the isolated small intestine (ileum) of guinea pigs, barium chloride as agonist; conditions: 10^-6 g/cc; for % inhibition: incubation 1 minute, BaCl2 2.10^-6 g/cc
Description: The tests are carried out in vitro utilizing the isolated small intestine of guinea pigs. As agonist, there is used barium chloride in the dose of 2.10^-6 g/cc. The substance AF 544 and papaverine, which is a substance having well-known spasmolytic activity, are tested in the same concentration of 10^-6 g/cc.

[4] = Acute toxicity (DL50) in mice; conditions: mouse, in vivo
Description: The DL50 has been determined in mice by the oral as well as intraperitoneal route.

[5] = test system: rats having normal blood pressure; experiment: Hypotensive activity in rats having normal blood pressure; assay type: in vivo; conditions: for Time of maximum hypotensive effect: i.p., rats with normal blood pressure
Description: The product has been administered by the intraperitoneal route to rats having normal blood pressure in the dose of 10 and 25 mg/kg. The systolic pressure of the animals has been measured 1, 4, and 24 hours respectively after the treatment using hydralazine in the dose of 1 mg/kg intraperitoneally for comparison. […] When the substance is administered in the dose of 25 mg/kg, the decrease in the systolic pressure is 2.5 times the decrease caused by hydralazine administered in the dose of 1 mg/kg.

[6] = test system: rats having genetically high blood pressure; experiment: Antihypertensive activity in rats having genetically high blood pressure; assay type: in vivo; conditions: 25 mg/kg orally
Description: There are utilized for this test rats having genetically high blood pressure. The rats are treated for three days with AF 544 in the dose of 25 mg/kg orally. After each treatment and specifically after 1, 4, 8 and 24 hours respectively, the systolic pressure of the animals is measured.

[7] = test system: rats treated to cause an increase in blood pressure by tying the abdominal aorta; experiment: Antihypertensive activity in rats with tied abdominal aorta, blood pressure; assay type: in vivo
Description: (§1) In a second experiment, the substance AF 544 has been administered to rats which have been treated to cause an increase in blood pressure, specifically by tying the abdominal aorta. The administration has been carried out by the oral route in the dose of 20 and 40 mg/kg respectively. Measurements of diastolic pressure, systolic pressure and average pressure are made after 1, 15, and 30 minutes. After 30 minutes, for each group, determinations are made of the hematic renin and the hematic angiotensin. The dose of 20 mg/kg is found to reduce the diastolic pressure of 10-15% while the systolic pressure and the average pressure remain unchanged. On the other hand, the dose of 40 mg/kg is found to be effective on all three parameters, causing an average reduction of about 25%.

[8] = test system: renin; experiment: Hematic renin in rats with tied abdominal aorta; assay type: in vivo; conditions: 20 and 40 mg/kg oral, after 30 minutes
Description: as §1

[9] = test system: angiotensin; experiment: Hematic angiotensin in rats with tied abdominal aorta; assay type: in vivo; conditions: 20 and 40 mg/kg oral, after 30 minutes
Description: as §1

[10] = test system: anaesthesized cats; experiment: Effect on the circulation and on breathing of anaesthetized cats; assay type: in vivo
Description: For this test, six cats of both sexes are used. The animals had been brought to a state of anaesthesia by means of urethane. The substance AF 544 is administered by the endovenous route in the dose of 0.1-1 mg/kg. The following parameters have been studied: average arterial pressure, amplitude and respiratory frequency, effect on pressure responses to various agonists, (acetylcholine, adrenaline, occlusion of the carotid artery, and vagal stimulation).

[11] = perfused rat lower limb, dose 5.10^-5 g/cc, high-potassium vasoconstriction

CC(=N)Nc1c(Cl)cccc1Cl
Solubility in water ([1]; in water): soluble in water

COc1ccc(Cc2nccc3cc(OC)c(OC)cc23)cc1OC [PAPAVERINE, papaverine, reference compound]
inhibition at 50 µg/mL ([2]; Rattus norvegicus): 39.3% | Decrease in pressure, mm Hg ± e.s [2, 11]: 82 ± 13.6 mm Hg | % inhibition [3]: 73.7 ± 8.09%

CC(=N)Nc1c(Cl)cccc1Cl [AF 544, N-(2,6-dichlorophenyl)acetamidine]
LD50 ([4]; ip): 170 mg/kg | LD50 ([4]; po, orally): 420 mg/kg | Vasodilator activity (in words) ([2]; compared with papaverine at equal dose): substantial vasodilator activity, which is only slightly inferior to that of papaverine at equal dose | Decrease in pressure, mm Hg ± e.s [2, 11]: 60 ± 3.2 mm Hg | inhibition at 50 µg/mL [2, 11]: 27.5% | Percentage variation of systolic pressure with respect to the basal values ([5]; 10 mg/kg i.p., 1 hour): -1.5 ± 1.8% | Percentage variation of systolic pressure with respect to the basal values ([5]; 10 mg/kg i.p., 4 hours): -13.1 ± 6.8% | Percentage variation of systolic pressure with respect to the basal values ([5]; 25 mg/kg i.p., 1 hour): -6.6 ± 13.4% | Percentage variation of systolic pressure with respect to the basal values ([5]; 25 mg/kg i.p., 4 hours): -46.2 ± 3.4% | Percentage variation of systolic pressure with respect to the basal values ([5]; 25 mg/kg i.p., 24 hours): -2.2 ± 2.8% | Dose dependence of hypotensive activity ([5]; 10 and 25 mg/kg i.p.): depends on the dose | Decrease in systolic pressure relative to the decrease caused by hydralazine ([5]; AF 544 25 mg/kg i.p. vs hydralazine 1 mg/kg i.p.): 2.5 times | Time of maximum hypotensive effect [5]: reaches the maximum effect during the fourth hour | Time of maximum decrease of pressure [6]: between the fourth and eighth hour | Percentage variation of (systolic) pressure with respect to the basal values of the first day ([6]; day 1, 1 hour): -5% | Percentage variation of (systolic) pressure with respect to the basal values of the first day ([6]; day 1, 4 hours): -20% | Percentage variation of (systolic) pressure with respect to the basal values of the first day ([6]; day 1, 8 hours): -18% | Percentage variation of (systolic) pressure with respect to the basal values of the first day ([6]; day 1, 24 hours): -19% | Percentage variation of (systolic) pressure with respect to the basal values of the first day ([6]; day 2, 1 hour): -26% | Percentage variation of (systolic) pressure with respect to the basal values of the first day ([6]; day 2, 4 hours): -20% | Percentage variation of (systolic) pressure with respect to the basal values of the first day ([6]; day 2, 8 hours): -27% | Percentage variation of (systolic) pressure with respect to the basal values of the first day ([6]; day 2, 24 hours): -28% | Percentage variation of (systolic) pressure with respect to the basal values of the first day ([6]; day 3, 1 hour): -22% | Percentage variation of (systolic) pressure with respect to the basal values of the first day ([6]; day 3, 4 hours): -11% | Percentage variation of (systolic) pressure with respect to the basal values of the first day ([6]; day 3, 8 hours): -15% | Percentage variation of (systolic) pressure with respect to the basal values of the first day ([6]; day 3, 24 hours): -12% | Decrease of pressure at the twenty-fourth hour (in words) ([6]; relative to the maximum at 4-8 hours): remaining about the same during the twenty-fourth hour | Effect on average pressure ([7]; 20 mg/kg oral): unchanged | Effect on systolic pressure ([7]; 20 mg/kg oral): unchanged | Reduction of diastolic pressure ([7]; 20 mg/kg oral): 10-15% | Average reduction of all three parameters (diastolic, systolic and average pressure) ([7]; 40 mg/kg oral): about 25% | Activity of renin [8]: increases in proportion to the dose of AF 544 | Quantity of angiotensin [9]: an increase in the quantity of angiotensin occurs, which is inversely proportional to the dose of AF 544 | Effect in % on pressure response to acetylcholine ([10]; 0.1 mg/kg i.v.): +5.0% | Effect in % on pressure response to adrenaline ([10]; 0.1 mg/kg i.v.): -25.6% | Effect in % on pressure response to carotid occlusion ([10]; 0.1 mg/kg i.v.): +3.5% | Effect in % on pressure response to vagal stimulation ([10]; 0.1 mg/kg i.v.): +11.5% | Effect on arterial pressure, % ([10]; 0.1 mg/kg i.v.): -13.9% | Effect on arterial pressure, mm Hg ± e.s ([10]; 0.1 mg/kg i.v.): -12.5 mm Hg | Respiration, amplitude % ([10]; 0.1 mg/kg i.v.): +50.9% | Respiration, frequency % ([10]; 0.1 mg/kg i.v.): +31.4% | Transitory hypotension ([10]; 0.1 mg/kg intravenously): 13.9% | Effect in % on pressure response to acetylcholine ([10]; 1 mg/kg i.v.): +4.5% | Effect in % on pressure response to adrenaline ([10]; 1 mg/kg i.v.): +4.0% | Effect in % on pressure response to carotid occlusion ([10]; 1 mg/kg i.v.): +2.5% | Effect in % on pressure response to vagal stimulation ([10]; 1 mg/kg i.v.): +20.4% | Effect on arterial pressure, % ([10]; 1 mg/kg i.v.): -46.0% | Effect on arterial pressure, mm Hg ± e.s ([10]; 1 mg/kg i.v.): -36.7 mm Hg | Respiration, amplitude % ([10]; 1 mg/kg i.v.): +16.1% | Respiration, frequency % ([10]; 1 mg/kg i.v.): -8.5% | Transitory hypotension ([10]; 1 mg/kg intravenously): 46.0% | Variations of the other parameters observed (in words) ([10]; 0.1-1 mg/kg i.v., respiration, responses to agonists): small and statistically they are not significant | Spasmolytic activity (in words) ([3]; efficacy compared with papaverine in the same concentration): high spasmolytic activity with an efficacy which is statistically analogous to that of papaverine in the same concentration | % inhibition [3]: 49.8 ± 7.44% | Solubility in common organic solvents ([1]; by heating, common organic solvents): soluble by heating in common organic solvents

NNc1nncc2ccccc12 [HYDRALAZINE, hydralazine, reference compound]
Percentage variation of systolic pressure with respect to the basal values ([5]; 1 mg/kg i.p., 1 hour): +21.0 ± 4.9% | Percentage variation of systolic pressure with respect to the basal values ([5]; 1 mg/kg i.p., 4 hours): -18.0 ± 3.1% | Percentage variation of systolic pressure with respect to the basal values ([5]; 1 mg/kg i.p., 24 hours): -7.5 ± 7.8% | Time of maximum hypotensive effect [5]: reaches the maximum even during the first hour
